Results on 5 compounds are retold here after US7482024B2, “Compositions comprising an active agent” (Nektar Therapeutics, priority 1999, dated 2009).

This data set in a line: Surface tension measurement, Kruss Processor Tensiometer-K12, Wilhelmy-method (plate method). It is filed as physicochemical. Particulars: for Surface tension, 25° C. Extrapolated Values at 2 mg/ml / Surface tension, 45° C. Extrapolated Values at 2 mg/ml: extrapolated to 2 mg/ml. The procedure:
A “surface active” material is one having surface activity (measured, e.g., by surface tensiometry), as characterized by its ability to reduce the surface tension of the liquid in which it is dissolved. […] A peptide that is more surface active than another peptide is one which decreases the surface tension of water to a greater extent, when present in the liquid at the same concentration and measured under the same set of experimental conditions. The surface tension of several representative dipeptides, tripeptides, and proteins was measured at 25° C. and 45° C. to provide an indication of their relative surface activities. Surface tension measurements were carried out using a Kruss Processor Tensiometer-K12 with the Wilhelmy-method (Plate method). Solutions were prepared by dissolving either 0.05%, 0.2%, or 0.6% peptide/protein (by weight) along with an appropriate amount of raffinose by weight to provide final solutions having a 1.0% by weight solids content. Surface tension measurements at 25° C. and 45° C. were then obtained for the test solutions at three different time points (49 seconds, 100 seconds and 194 seconds).

Several values for one entry are separate records, joined by “and”; a condition that tells them apart may be missing. Equal values may be shown once. Peptide text beside a SMILES is read from it.

As to `OC[C@H]1O[C@H](OC[C@H]2O[C@H](O[C@]3(CO)O[C@H](CO)[C@@H](O)[C@@H]3O)[C@H](O)[C@@H](O)[C@@H]2O)[C@H](O)[C@@H](O)[C@H]1O` [raffinose], the “Surface activity (ability to lower the surface tension of water), in words” value is “non-surface active”. Moreover, the “Surface tension (ST)” value (1% raffinose, 25° C., 49 s) is 72 mN/m. In addition, the “Surface tension (ST)” value (1% raffinose, 25° C., 100 s) is 72 mN/m. For the same compound, the “Surface tension (ST)” value (1% raffinose, 25° C., 194 s) is 72 mN/m. In addition, under “1% raffinose, pH4, 25° C., 49 s”, the “Surface tension (ST)” value is 71.4 mN/m and 71.1 mN/m. Besides, under “1% raffinose, pH4, 25° C., 100 s”, the “Surface tension (ST)” value is 71.4 mN/m and 71.1 mN/m. Moreover, the “Surface tension (ST)” value (1% raffinose, pH4, 25° C., 194 s) was 71.4 mN/m and 71.1 mN/m. Moreover, where the note is “1% raffinose, pH4, 45° C., 49 s”, the “Surface tension (ST)” value was 67.9 mN/m and 68.2 mN/m and 68 mN/m. The “Surface tension (ST)” value (1% raffinose, pH4, 45° C., 100 s) was 68 mN/m and 68.2 mN/m. Besides, the “Surface tension (ST)” value (1% raffinose, pH4, 45° C., 194 s) was 68 mN/m and 68.2 mN/m and 68.1 mN/m. In addition, the “Surface tension (ST)” value (1% raffinose, pH7, 25° C., 49 s) is 71.1 mN/m. The “Surface tension (ST)” value (1% raffinose, pH7, 25° C., 100 s) is 71.1 mN/m. In addition, for the setting “1% raffinose, pH7, 25° C., 194 s”, the “Surface tension (ST)” value amounted to 71.1 mN/m. The “Surface tension (ST)” value (1% raffinose, pH7, 45° C., 49 s) is 68.4 mN/m and 68.3 mN/m. In addition, under “1% raffinose, pH7, 45° C., 100 s”, the “Surface tension (ST)” value is 68.4 mN/m and 68.3 mN/m. Besides, the “Surface tension (ST)” value (1% raffinose, pH7, 45° C., 194 s) was 68.4 mN/m and 68.3 mN/m.

For the compound `CC(C)CC(N)C(=O)NC(CC(C)C)C(=O)NC(CC(C)C)C(=O)O` (stereo not drawn) [tri-leucine, trileucine] (H-Leu-Leu-Leu-OH; configuration not given here), the “Surface activity (ability to lower the surface tension of water), in words” value is listed as “highly surface active”. Also, the “Surface tension, Actual MEAN” value (0.68 mg/ml, 25° C.) was determined as 56.9 mN/m. For the setting “0.68 mg/ml, 45° C.”, the “Surface tension, Actual MEAN” value was determined as 52.8 mN/m. For the same compound, the “Surface tension, Actual MEAN” value (2.03 mg/ml, 25° C.) stood at 49.7 mN/m. For the same compound, for the setting “2.03 mg/ml, 45° C.”, the “Surface tension, Actual MEAN” value came to 46.3 mN/m. The “Surface tension, Actual MEAN” value (6.10 mg/ml, 25° C.) is on record as 42.4 mN/m. Further, the “Surface tension, Actual MEAN” value (6.10 mg/ml, 45° C.) is 38.9 mN/m. Also, the “Surface tension (ST)” value (0.05%, pH4, raffinose to 1% solids, 25° C., 49 s, listed as leu3) is 59.9 mN/m and 60.4 mN/m. For the setting “0.05%, pH4, raffinose to 1% solids, 25° C., 100 s, listed as leu3”, the “Surface tension (ST)” value is 59.8 mN/m and 60.3 mN/m. Further, for the setting “0.05%, pH4, raffinose to 1% solids, 25° C., 194 s, listed as leu3”, the “Surface tension (ST)” value was 59.7 mN/m and 60.2 mN/m. Besides, the “Surface tension (ST)” value (0.05%, pH4, raffinose to 1% solids, 45° C., 49 s, listed as leu3) was 57.1 mN/m and 58.1 mN/m and 58 mN/m. The “Surface tension (ST)” value (0.05%, pH4, raffinose to 1% solids, 45° C., 100 s, listed as leu3) was 57 mN/m and 57.9 mN/m and 57.8 mN/m. In addition, the “Surface tension (ST)” value (0.05%, pH4, raffinose to 1% solids, 45° C., 194 s, listed as leu3) was 57 mN/m and 57.8 mN/m. For the same compound, for the setting “0.05%, pH7, raffinose to 1% solids, 25° C., 49 s, listed as leu3”, the “Surface tension (ST)” value was 60.1 mN/m and 60 mN/m and 60.2 mN/m. In addition, the “Surface tension (ST)” value (0.05%, pH7, raffinose to 1% solids, 25° C., 100 s, listed as leu3) is 59.8 mN/m and 60 mN/m. Moreover, the “Surface tension (ST)” value (0.05%, pH7, raffinose to 1% solids, 25° C., 194 s, listed as leu3) is 59.7 mN/m and 59.8 mN/m. Where the note is “0.05%, pH7, raffinose to 1% solids, 45° C., 49 s, listed as leu3”, the “Surface tension (ST)” value was 58.5 mN/m and 58.2 mN/m. In addition, where the note is “0.05%, pH7, raffinose to 1% solids, 45° C., 100 s, listed as leu3”, the “Surface tension (ST)” value was 58.4 mN/m and 58.2 mN/m and 58.1 mN/m. Besides, the “Surface tension (ST)” value (0.05%, pH7, raffinose to 1% solids, 45° C., 194 s, listed as leu3) is 58.4 mN/m and 58.1 mN/m. Also, under “0.2% (wt/vol) plus raffinose to 1% total solids, 25° C., 49 s”, the “Surface tension (ST)” value is recorded as 51 mN/m. For the same compound, the “Surface tension (ST)” value (0.2% (wt/vol) plus raffinose to 1% total solids, 25° C., 100 s) is 50.9 mN/m and 50.8 mN/m. The “Surface tension (ST)” value (0.2% (wt/vol) plus raffinose to 1% total solids, 25° C., 194 s) was 50.9 mN/m and 50.7 mN/m. In addition, under “0.2%, pH4, raffinose to 1% solids, 25° C., 49 s”, the “Surface tension (ST)” value was 51.4 mN/m. Further, under “0.2%, pH4, raffinose to 1% solids, 25° C., 100 s, listed as leu3”, the “Surface tension (ST)” value is 51.2 mN/m and 51.3 mN/m. For the setting “0.2%, pH4, raffinose to 1% solids, 25° C., 194 s, listed as leu3”, the “Surface tension (ST)” value was 51.1 mN/m and 51.2 mN/m. Also, the “Surface tension (ST)” value (0.2%, pH4, raffinose to 1% solids, 45° C., 49 s, listed as leu3) is 47.9 mN/m and 47.2 mN/m. Also, under “0.2%, pH4, raffinose to 1% solids, 45° C., 100 s, listed as leu3”, the “Surface tension (ST)” value was 47.5 mN/m and 47.2 mN/m and 47.3 mN/m. Also, the “Surface tension (ST)” value (0.2%, pH4, raffinose to 1% solids, 45° C., 194 s, listed as leu3) is 47.4 mN/m and 47.3 mN/m and 47.1 mN/m. In addition, under “0.2%, pH7, raffinose to 1% solids, 25° C., 49 s, listed as leu3”, the “Surface tension (ST)” value is 51 mN/m and 50.9 mN/m and 50.7 mN/m. In addition, the “Surface tension (ST)” value (0.2%, pH7, raffinose to 1% solids, 25° C., 100 s, listed as leu3) is 50.8 mN/m and 50.7 mN/m and 50.5 mN/m. Moreover, under “0.2%, pH7, raffinose to 1% solids, 25° C., 194 s, listed as leu3”, the “Surface tension (ST)” value is 50.7 mN/m and 50.6 mN/m and 50.4 mN/m. Moreover, the “Surface tension (ST)” value (0.2%, pH7, raffinose to 1% solids, 45° C., 49 s, listed as leu3) was 58.5 mN/m and 58.2 mN/m. Besides, the “Surface tension (ST)” value (0.2%, pH7, raffinose to 1% solids, 45° C., 100 s, listed as leu3) is 58.4 mN/m and 58.2 mN/m and 58.1 mN/m. In addition, where the note is “0.2%, pH7, raffinose to 1% solids, 45° C., 194 s, listed as leu3”, the “Surface tension (ST)” value is 58.4 mN/m and 58.1 mN/m. For the same compound, the “Surface tension (ST)” value (0.6%, pH4, raffinose to 1% solids, 25° C., 49 s, listed as leu3) is 44.2 mN/m and 44.3 mN/m. The “Surface tension (ST)” value (0.6%, pH4, raffinose to 1% solids, 25° C., 100 s, listed as leu3) was 44.1 mN/m and 44.2 mN/m. Where the note is “0.6%, pH4, raffinose to 1% solids, 25° C., 194 s, listed as leu3”, the “Surface tension (ST)” value was 44 mN/m and 44.2 mN/m and 44.1 mN/m. In addition, the “Surface tension (ST)” value (0.6%, pH4, raffinose to 1% solids, 45° C., 49 s, listed as leu3) was 40.9 mN/m and 41.1 mN/m. Moreover, the “Surface tension (ST)” value (0.6%, pH4, raffinose to 1% solids, 45° C., 100 s, listed as leu3) is 40.9 mN/m and 41 mN/m. Further, the “Surface tension (ST)” value (0.6%, pH4, raffinose to 1% solids, 45° C., 194 s, listed as leu3) is 40.8 mN/m and 40.9 mN/m. Also, under “0.6%, pH7, raffinose to 1% solids, 25° C., 49 s, listed as leu3”, the “Surface tension (ST)” value was 43.7 mN/m and 43.8 mN/m. Besides, the “Surface tension (ST)” value (0.6%, pH7, raffinose to 1% solids, 25° C., 100 s) is on record as 43.7 mN/m. For the same compound, the “Surface tension (ST)” value (0.6%, pH7, raffinose to 1% solids, 25° C., 194 s, listed as leu3) is 43.6 mN/m and 43.7 mN/m. In addition, where the note is “concentration of 0.68 mg/ml”, the “Surface tension of water lowered to” value is on record as “about 57 mN/m”. In addition, the Surface tension of water lowered to (concentration of 1.20 mg/ml, water about 72 mN/m) is 42 mN/m. Further, the “Surface tension, 25° C. Extrapolated Values at 2 mg/ml” value (25° C.) was 49.7 mN/m. Also, the “Surface tension, 45° C. Extrapolated Values at 2 mg/ml” value (45° C.) is reported as 46.3 mN/m.

For Ala-Val-Leu [reference compound], the “Surface tension, Actual MEAN” value (0.97 mg/ml, 25° C.) amounted to 67.5 mN/m; the “Surface tension, Actual MEAN” value (0.97 mg/ml, 45° C.) was 60.3 mN/m; the “Surface tension, Actual MEAN” value (2.90 mg/ml, 25° C.) is recorded as 62.8 mN/m; the “Surface tension, Actual MEAN” value (2.90 mg/ml, 45° C.) turned out to be 57.7 mN/m; the “Surface tension, Actual MEAN” value (8.70 mg/ml, 25° C.) is 55.7 mN/m; the “Surface tension, Actual MEAN” value (8.70 mg/ml, 45° C.) was 53.8 mN/m. The “Surface tension, 25° C. Extrapolated Values at 2 mg/ml” value (25° C.) is on record as 65 mN/m. In addition, where the note is “45° C.”, the “Surface tension, 45° C. Extrapolated Values at 2 mg/ml” value is 58.9 mN/m.

Regarding Leu-Tyr [reference compound], the “Surface tension, Actual MEAN” value stood at 71.5 mN/m (0.71 mg/ml, 25° C.); 68.0 mN/m (0.71 mg/ml, 45° C.); 68.0 mN/m (2.13 mg/ml, 25° C.); 65.6 mN/m (2.13 mg/ml, 45° C.); 62.2 mN/m (6.40 mg/ml, 25° C.); 59.5 mN/m (6.40 mg/ml, 45° C.). The “Surface tension, 25° C. Extrapolated Values at 2 mg/ml” value (25° C.) is given as 68.3 mN/m. For the same compound, for the setting “45° C.”, the “Surface tension, 45° C. Extrapolated Values at 2 mg/ml” value is 67.3 mN/m.

For the compound Leu-Val [reference compound], the “Surface tension, Actual MEAN” value (0.98 mg/ml, 25° C.) is recorded as 69.2 mN/m; the “Surface tension, Actual MEAN” value (0.98 mg/ml, 45° C.) is 64.2 mN/m; the “Surface tension, Actual MEAN” value (2.93 mg/ml, 25° C.) is reported as 65 mN/m; the “Surface tension, Actual MEAN” value (2.93 mg/ml, 45° C.) was 60.4 mN/m; the “Surface tension, Actual MEAN” value (8.80 mg/ml, 25° C.) is recorded as 59.1 mN/m; the “Surface tension, Actual MEAN” value (8.80 mg/ml, 45° C.) was 55.7 mN/m. For the same compound, the “Surface tension, 25° C. Extrapolated Values at 2 mg/ml” value (25° C.) was 67.2 mN/m. The “Surface tension, 45° C. Extrapolated Values at 2 mg/ml” value (45° C.) is 62.3 mN/m.
